Data reported in paper PMC9465256, “Discovering monoacylglycerol lipase inhibitors by a combination of fluorogenic substrate assay and activity-based protein profiling” (Frontiers in Pharmacology, 2022).

What was measured:
Type in all cases: biochemical
human MAGL = target: T1, human MAGL (Homo sapiens, UniProt Q99685); assay: MAGL activity assay (AA-HNA fluorogenic substrate); details: 100 µM, AA-HNA substrate assay, Supplementary Table 1; read-out: MAGL Inhibition (%)
T1 construct: expressed in transfected cells; host or cells: HEK293T (transient transfection; membrane fraction)
T1 sequence (Q99685 1-303): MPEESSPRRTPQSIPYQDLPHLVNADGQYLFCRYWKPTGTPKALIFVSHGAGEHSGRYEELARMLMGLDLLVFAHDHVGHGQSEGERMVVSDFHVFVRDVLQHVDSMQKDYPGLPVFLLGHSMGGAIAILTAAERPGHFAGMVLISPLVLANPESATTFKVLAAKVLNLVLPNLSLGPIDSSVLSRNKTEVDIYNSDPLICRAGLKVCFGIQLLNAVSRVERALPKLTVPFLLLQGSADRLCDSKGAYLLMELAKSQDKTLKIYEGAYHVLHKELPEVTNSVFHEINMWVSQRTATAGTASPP
Protocol: (§1) HEK293T cells were cultured at 37°C under 5% CO2 in a DMEM medium with stable glutamine and phenolred, containing 10% fetal bovine serum (FBS, Gibco), penicillin, and streptomycin. The cells were passaged every 2–3 days by resuspension in the medium at ∼90% confluence. The membranes used in this study were prepared from transiently transfected HEK293T cells. Briefly, 1 day prior to transfection, ∼10^7 cells were seeded in 15 cm plates, and then the cells were transfected by the addition of a mixture of polyethyleneimine and plasmid DNA (3:1, 60, and 20 µg) in 2 ml of medium (without serum). Of note, the empty pcDNA3.1 vector was used in the Mock-control. After 24 h, the medium was removed and the cells were refreshed with fresh medium. After 72 h, the cells were harvested by suspending in 20 ml of medium, and the supernatant was removed by centrifugation for 10 min at 1,000 rpm. The cell pellet was flash frozen in liquid nitrogen and stored at −80°C until use. Subsequently, the cell pellets were suspended in lysis buffer (30 mM Tirs, pH 7.5, 1 mM MgCl2, 25 U/ml Benzonase), which was homogenized by sonication (3 × 10 bursts) and incubated for 30 min on ice. The membrane fractions overexpressing MAGL/ABHD6/ABHD12 were separated by ultracentrifuge (100,000 g, 30 min, 4 C). The protein concentration was determined with a Qubit protein assay (Invitrogen). The protein samples were quickly frozen in liquid nitrogen and stored at −80 C until use.
The MAGL activity assay is based on the hydrolysis of 2-arachidonoylglycerol-based fluorogenic substrate by MAGL-overexpressing membrane preparations from transiently transfected HEK293T cells. In brief, the reactions were performed in HEPES buffer (40 mM HEPES, pH 7.5, 0.1 mg/ml BSA) in black, flat bottom 96-well plates. […] After the incubation of the inhibitor-protein complex for 30 min, 10 µl of the fluorogenic substrate (AA-HNA, 200 µM) was added and fluorescence was measured in 1 min intervals for 30 min on a plate reader (BioTek). […] All the measurements were performed in N = 2, n = 2 for inhibitors and N = 2, n = 4 for controls with Z′ value ≥0.6. The slope is determined in 5–15 min for all the experiments.

human ABHD12 = target: T2, human ABHD12 (Homo sapiens, UniProt Q8N2K0); assay: ABHD12 activity by competitive ABPP with FP-TAMRA; details: 100 µM compound; competitive ABPP with probe FP-TAMRA (250 nM); read-out: ABHD12 Inhibition (%)
T2 construct: expressed in transfected cells; host or cells: HEK293T (transient transfection; membrane fraction)
T2 sequence (Q8N2K0 1-398): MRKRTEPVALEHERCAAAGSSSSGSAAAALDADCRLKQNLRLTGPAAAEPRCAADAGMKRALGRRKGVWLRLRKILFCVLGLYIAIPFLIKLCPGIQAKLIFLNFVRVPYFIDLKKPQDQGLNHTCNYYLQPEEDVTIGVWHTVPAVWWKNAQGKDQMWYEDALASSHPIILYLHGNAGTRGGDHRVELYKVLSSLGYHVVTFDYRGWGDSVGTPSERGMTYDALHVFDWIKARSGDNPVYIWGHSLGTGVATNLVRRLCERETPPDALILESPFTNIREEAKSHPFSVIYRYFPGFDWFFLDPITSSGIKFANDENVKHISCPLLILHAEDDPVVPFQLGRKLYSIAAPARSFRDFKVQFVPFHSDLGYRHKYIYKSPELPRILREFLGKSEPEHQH
Protocol: as §1
The ABHD12 activity assay is based on competitive activity-based protein profiling (ABPP) with human ABHD12 overexpressing membrane fractions. Briefly, the membrane proteome (1 mg/ml, 20 µl) was incubated at room temperature with 0.5 µl DMSO (vehicle) or inhibitor for 30 min. Subsequently, the samples were treated with the activity-based probe FP-TAMRA (250 nM, final concentration) for 20 min. The reactions were then quenched by 10 µl sample buffer (×4) (final concentrations: 60 mM Tris, pH 6.8, 2% (w/v) SDS, 10% (v/v) glycerol, 5% (v/v) β-mercaptoethanol, 0.01% (v/v) bromophenol blue). The samples were directly loaded and resolved on SDS-PAGE gel (10% acrylamide), which were then scanned using a ChemiDoc MP system (Cy3 settings, BioRad).

human ABHD6 = target: T3, human ABHD6 (Homo sapiens, UniProt Q9BV23); assay: ABHD6 activity assay (AA-HNA fluorogenic substrate); details: 100 µM, AA-HNA substrate assay, Supplementary Table 2; read-out: ABHD6 Inhibition (%)
T3 construct: expressed in transfected cells; host or cells: HEK293T (transient transfection; membrane fraction)
T3 sequence (Q9BV23 1-337): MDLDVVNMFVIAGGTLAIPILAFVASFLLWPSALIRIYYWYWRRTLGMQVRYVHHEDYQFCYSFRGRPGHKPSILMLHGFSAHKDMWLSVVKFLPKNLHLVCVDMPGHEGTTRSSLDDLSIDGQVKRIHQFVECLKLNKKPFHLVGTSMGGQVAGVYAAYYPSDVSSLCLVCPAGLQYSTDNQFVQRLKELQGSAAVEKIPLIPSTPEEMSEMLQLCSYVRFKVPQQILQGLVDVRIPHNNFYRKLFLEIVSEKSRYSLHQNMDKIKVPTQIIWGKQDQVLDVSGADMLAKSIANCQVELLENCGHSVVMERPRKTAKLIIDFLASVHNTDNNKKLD
Protocol: as §1
The MAGL activity assay is based on the hydrolysis of 2-arachidonoylglycerol-based fluorogenic substrate by MAGL-overexpressing membrane preparations from transiently transfected HEK293T cells. In brief, the reactions were performed in HEPES buffer (40 mM HEPES, pH 7.5, 0.1 mg/ml BSA) in black, flat bottom 96-well plates. The final protein concentration of membrane fractions from overexpressing human MAGL HEK293T cells was 12.5 μg/ml 5 µl of inhibitors were added from×40 concentrated DMSO stocks in the 96-well plate containing 145 µl assay buffer, followed by the addition of 40 µl of the protein (12.5 μg/ml). After the incubation of the inhibitor-protein complex for 30 min, 10 µl of the fluorogenic substrate (AA-HNA, 200 µM) was added and fluorescence was measured in 1 min intervals for 30 min on a plate reader (BioTek). Final assay concentrations: 12.5 μg/ml MAGL, […], and […] in the total volume of 200 µl. All the measurements were performed in N = 2, n = 2 for inhibitors and N = 2, n = 4 for controls with Z′ value ≥0.6. The slope is determined in 5–15 min for all the experiments.
The ABHD6 activity assay is based on the same principle as the MAGL activity assay described earlier, but with human ABHD6 overexpressing membrane preparations at a final protein concentration of 50 μg/ml and 200 µM AA-HNA. Other conditions are the same as those of the MAGL activity assay.

| Compound | activity at 100 µM (human MAGL) [%] | activity at 100 µM (human ABHD12) [%] | activity at 100 µM (human ABHD6) [%] | activity (human MAGL) [%] | activity (human ABHD12) [%] | activity (human ABHD6) [%] |
| --- | --- | --- | --- | --- | --- | --- |
| O=C(/C=C/C=C/c1ccc2c(c1)OCO2)N1CCCCC1 [compound 68, Piperine] | 99.7 | 90.8 | 112 |  |  |  |
| Cc1cc(O)c2c(c1)C(=O)c1cc(O)cc(O)c1C2=O [compound 28, Emodin] | 63.2 | 67.6 | 87.9 |  |  |  |
| Methyl-Hesperidin [compound 50] |  |  |  | 62.5 | 76.8 | 94.2 |
| O=c1cc(-c2ccccc2)oc2cc(O)c(O)c(O)c12 [compound 14, Baicalein] | 64.3 | 82.7 | 131 |  |  |  |
| O=C(O)/C=C/c1ccc(O)c(O)c1 [compound 19, Caffeic Acid] |  |  |  | 90.1 | 83.7 | 108 |
| C[C@@H]1O[C@@H](OC[C@H]2O[C@@H](Oc3c(-c4ccc(O)c(O)c4)oc4cc(O)cc(O)c4c3=O)[C@H](O)[C@@H](O)[C@@H]2O)[C@H](O)[C@H](O)[C@H]1O [compound 72, Rutin] | 75.9 | 84.3 | 119 |  |  |  |
| O=c1cc(-c2ccccc2)oc2cc(O)cc(O)c12 [compound 22, Chrysin] | 93.2 | 84 | 105 |  |  |  |
| COc1ccc2ccc(=O)oc2c1CC=C(C)C [compound 62, Osthole] | 94.5 | 106 | 112 |  |  |  |
| O=C(O)c1cc(=O)[nH]c(=O)[nH]1 [compound 61, Orotic acid] | 101 | 97.2 | 113 |  |  |  |
| OC[C@H]1O[C@@H](Oc2ccc(O)cc2)[C@H](O)[C@@H](O)[C@@H]1O [compound 10, Arbutin] | 84.2 | 66.6 | 83.2 |  |  |  |
| COc1ccc([C@@H]2CC(=O)c3c(O)cc(O)cc3O2)cc1O [compound 37, Hesperetin] | 90.9 | 83.6 | 104 |  |  |  |
| O=c1c(O)c(-c2ccc(O)c(O)c2)oc2cc(O)ccc12 [compound 29, Fisetin] | 76.2 | 51.9 | 82.4 |  |  |  |
